What was measured:
[1] = target: T1, human GPRC6A isoform 2 (Homo sapiens, UniProt Q5T6X5); test: cAMP accumulation in HEK-293 cells transfected with human GPRC6A isoform 2; assay type: cell-based; conditions: HEK-293 transfected with GPRC6A isoform 2; presence of 1 mM calcium; 40 min; Figure 2A
T1 construct: expressed in transfected cells; host or cells: HEK-293
T1 sequence (Q5T6X5 19-751 isoform Q5T6X5-2 limits assumed): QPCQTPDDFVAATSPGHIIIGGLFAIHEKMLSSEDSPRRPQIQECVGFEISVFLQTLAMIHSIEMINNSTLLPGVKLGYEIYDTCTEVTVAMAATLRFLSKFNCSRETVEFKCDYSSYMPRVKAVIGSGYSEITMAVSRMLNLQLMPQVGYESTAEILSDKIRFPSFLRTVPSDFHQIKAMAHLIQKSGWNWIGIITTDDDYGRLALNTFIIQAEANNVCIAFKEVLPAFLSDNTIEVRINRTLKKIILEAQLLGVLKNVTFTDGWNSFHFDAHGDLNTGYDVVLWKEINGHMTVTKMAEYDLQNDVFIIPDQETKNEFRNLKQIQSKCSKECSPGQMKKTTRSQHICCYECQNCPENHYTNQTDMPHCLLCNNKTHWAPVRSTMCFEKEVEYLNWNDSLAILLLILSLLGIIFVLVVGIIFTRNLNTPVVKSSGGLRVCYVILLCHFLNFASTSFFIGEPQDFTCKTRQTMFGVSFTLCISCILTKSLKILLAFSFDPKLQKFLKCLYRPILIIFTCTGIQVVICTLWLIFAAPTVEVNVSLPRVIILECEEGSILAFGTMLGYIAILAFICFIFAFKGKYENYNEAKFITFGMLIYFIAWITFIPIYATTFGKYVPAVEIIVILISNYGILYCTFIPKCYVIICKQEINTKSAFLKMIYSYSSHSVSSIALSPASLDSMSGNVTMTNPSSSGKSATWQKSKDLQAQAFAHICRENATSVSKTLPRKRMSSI
Method: (§1) HEK‐293 transfected with human GPRC6A isoform cDNA plasmids cells (10^5 cells/well)[30] were cultured in 24‐well plates in DMEM supplemented with 10% fetal bovine serum and 1% penicillin/streptomycin (100 U/mL of penicillin and 100 μg/mL of streptomycin) for 48 h followed by 4 h incubation in DMEM/F12 containing 0.1% BSA and 0.5 mM IBMX to achieve quiescence and preventing cAMP degradation. Quiescent cells were treated with vehicle control, various ligands at concentration as indicated for 40 min at 37°C. Then, the reaction was stopped, and the cells lysed with 0.5 mL 0.1 N HCl. cAMP levels were measured by using Cyclic AMP EIA kit (Cayman Chemical; Ann Arbor, MA, USA) following the manufacture's protocol.

[2] = target: T2, human GPRC6A isoform 3 (Homo sapiens, UniProt Q5T6X5); test: cAMP accumulation in HEK-293 cells transfected with human GPRC6A isoform 3; assay type: cell-based; conditions: HEK-293 transfected with GPRC6A isoform 3, 40 min
T2 construct: expressed in transfected cells; host or cells: HEK-293
T2 sequence (Q5T6X5 19-855 isoform Q5T6X5-3 limits assumed): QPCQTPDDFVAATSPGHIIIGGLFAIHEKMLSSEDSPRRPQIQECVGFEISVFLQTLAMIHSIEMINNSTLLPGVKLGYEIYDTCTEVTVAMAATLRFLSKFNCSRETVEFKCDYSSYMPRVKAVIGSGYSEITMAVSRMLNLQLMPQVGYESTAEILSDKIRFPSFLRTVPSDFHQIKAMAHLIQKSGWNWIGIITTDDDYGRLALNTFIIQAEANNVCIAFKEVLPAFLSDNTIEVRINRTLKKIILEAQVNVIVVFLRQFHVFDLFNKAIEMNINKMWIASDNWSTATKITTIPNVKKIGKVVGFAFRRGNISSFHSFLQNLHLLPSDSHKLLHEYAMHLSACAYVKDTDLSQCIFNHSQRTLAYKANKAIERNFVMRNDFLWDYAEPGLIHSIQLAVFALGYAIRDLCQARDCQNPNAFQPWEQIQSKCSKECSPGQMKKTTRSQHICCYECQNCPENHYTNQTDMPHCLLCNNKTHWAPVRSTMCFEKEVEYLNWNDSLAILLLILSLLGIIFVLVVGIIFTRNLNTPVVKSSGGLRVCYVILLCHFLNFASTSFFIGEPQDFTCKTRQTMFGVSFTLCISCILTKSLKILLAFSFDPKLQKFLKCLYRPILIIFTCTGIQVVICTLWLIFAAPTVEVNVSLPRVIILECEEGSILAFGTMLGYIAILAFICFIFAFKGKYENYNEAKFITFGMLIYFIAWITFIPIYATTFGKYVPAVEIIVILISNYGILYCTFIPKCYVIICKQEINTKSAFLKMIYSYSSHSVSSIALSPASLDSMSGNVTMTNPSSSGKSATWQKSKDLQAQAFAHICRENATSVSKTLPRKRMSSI
Method: as §1

[3] = target: T3, human GPRC6A isoform 1 (Homo sapiens, UniProt Q5T6X5); test: ERK activation (phospho-ERK/total ERK ELISA) in HEK-293 cells transfected with human GPRC6A isoform 1 (wild-type); assay type: cell-based; conditions: fragments at 20 nM; HEK-293 with pcDNA3-hGPRC6A; 15 min; Figure 3B / S5B
T3 construct: expressed in transfected cells; host or cells: HEK-293, pcDNA3-hGPRC6A
T3 sequence (Q5T6X5 19-926): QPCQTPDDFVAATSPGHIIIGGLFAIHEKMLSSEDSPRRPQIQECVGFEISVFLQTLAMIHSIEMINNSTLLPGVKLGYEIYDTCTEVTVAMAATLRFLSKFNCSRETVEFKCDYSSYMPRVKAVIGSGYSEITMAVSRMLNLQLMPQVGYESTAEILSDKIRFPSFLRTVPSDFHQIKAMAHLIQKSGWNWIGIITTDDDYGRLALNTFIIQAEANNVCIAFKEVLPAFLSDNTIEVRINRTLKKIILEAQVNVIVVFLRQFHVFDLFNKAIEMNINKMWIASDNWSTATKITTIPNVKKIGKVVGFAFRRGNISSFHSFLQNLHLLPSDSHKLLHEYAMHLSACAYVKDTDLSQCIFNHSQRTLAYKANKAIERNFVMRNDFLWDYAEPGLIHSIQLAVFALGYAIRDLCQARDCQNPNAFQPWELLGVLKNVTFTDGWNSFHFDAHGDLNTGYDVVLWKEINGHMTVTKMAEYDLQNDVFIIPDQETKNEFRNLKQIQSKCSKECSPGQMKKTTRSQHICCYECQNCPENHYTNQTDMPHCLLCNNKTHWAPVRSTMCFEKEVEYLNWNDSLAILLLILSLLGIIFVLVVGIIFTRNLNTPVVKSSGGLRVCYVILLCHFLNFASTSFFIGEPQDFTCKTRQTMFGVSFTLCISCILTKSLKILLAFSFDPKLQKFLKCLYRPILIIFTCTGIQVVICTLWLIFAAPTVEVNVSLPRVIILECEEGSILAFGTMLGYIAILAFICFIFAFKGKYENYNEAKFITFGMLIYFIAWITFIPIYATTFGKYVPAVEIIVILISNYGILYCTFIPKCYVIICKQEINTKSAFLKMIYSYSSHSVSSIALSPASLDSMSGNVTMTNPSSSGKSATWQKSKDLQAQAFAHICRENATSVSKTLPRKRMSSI
Method: All culture reagents were from Invitrogen (Waltham, MA, USA). Human embryonic kidney HEK‐293 cells were obtained from American Type Culture Collection and cultured in DMEM medium supplemented with 10% fetal bovine serum and 1% Penicillin/Streptomycin (P/S). Briefly, HEK‐293 cells transfected with/without human GPRC6A isoforms cDNA plasmids were starved by overnight incubation in serum‐free DMEM/F12 containing 0.1% bovine serum albumin (BSA) and stimulated with various ligands at different doses. […]

[4] = target: T3, human GPRC6A isoform 1; test: cAMP accumulation in HEK-293 cells transfected with human GPRC6A isoform 1 (wild-type, full length); assay type: cell-based; conditions: fragments at 20 nM; HEK-293 with pcDNA3-hGPRC6A; 40 min; Figure 3C / S5C
Method: as §1

[5] = tested on: mouse model; parameters: method as in PMID 32147363; conditions: oral or intraperitoneal administration to a mouse model; cited from earlier work
[6] = tested on: GPRC6A; parameters: method as in PMID 32147363; conditions: cited from earlier work

## N=C(N)NCCC[C@H](N)C(=O)O [L‐Arg, L‐Arginine]
[1]
  L-Arg stimulation of cAMP accumulation: loss of L‐Arg stimulation of cAMP
[2]; presence of 1 mM calcium, Figure 2A
  L-Arg stimulation of cAMP accumulation: retained responsiveness

## C[C@]12CC[C@H]3[C@@H](CCC4=CC(=O)CC[C@@]43C)[C@@H]1CC[C@@H]2O [testosterone]
[2]; Figure S4
  Testosterone (T) activation, cAMP accumulation: loss responsive

## APVPYPDPLEPR [Ocn 8–19, synthesized human Ocn fragment, 12 aa]
[3]
  ERK phosphorylation by synthesized human Ocn fragments: activated GPRC6A
[4]
  cAMP accumulation by synthesized human Ocn fragments: activated GPRC6A

## WLGAPVPYPDPLEPR
[5]
  Effect on fatty liver disease and insulin resistance: improve fatty liver disease and insulin resistance
[6]
  Activation of GPRC6A in vitro: activate GPRC6A in vitro

Source: article PMC11467737, “Osteocalcin binds to a GPRC6A Venus fly trap allosteric site to positively modulate GPRC6A signaling” (FASEB BioAdvances, 2024)
